In test [1] the test system is platelets (platelet rich plasma). As to the kind of experiment: Inhibition of platelet aggregation (aggregometer, platelet rich plasma). It is filed as cell-based. The conditions noted are these: for Extent of aggregation as a percentage amplitude, 1 μg/mL collagen: agonist 1 μg/mL collagen; for Extent of aggregation as a percentage amplitude, 4 μM ADP: agonist 4 μM ADP; for Extent of aggregation as a percentage amplitude, 5 μg/mL collagen: agonist 5 μg/mL collagen; for Extent of aggregation as a percentage amplitude, 12 μM TRAP: agonist 12 μM TRAP. The protocol: Platelet rich plasma (PRP) was obtained by drawing whole blood into sodium citrate tubes (3.2%) and centrifuging at 700 rpm for 10 minutes. Platelet poor plasma (PPP) was obtained by centrifuging the remainder of the sample ntil the platelets were removed (3200 rpm for 10 minutes). The PRP was adjusted to a count of 280×10^9/L using a mixture of PRP and PPP. The incubation mixture consisted of 200 μL of platelets and 25 μL of the appropriate compound (18 mM stock for a final concentration of 2 mM and 4.5 mM stock for a final concentration of 500 μM), rendering an approximate final platelet count in the incubation mixture of 250×10^9/L. After incubation (30 minutes at room temperature, the cuvettes were incubated for 3 minutes at 37° C., transferred to the mixing wells and after the baselines transmittances were measured in an aggregometer (Chrono-Log 4), 25 μL of agonist was added to give a final concentration of 4 μM ADP, 1 μg/mL collagen, 5 μg/mL collagen or 12 μM thrombin receptor activating peptide (TRAP). Final transmittances were then measured in the aggregometer (lower percent transmittance represents higher aggregation). […] Table 24-1 gives the results of the extent of aggregation for several compounds as percentage amplitude read directly from the aggregometer.

Test [2] has as its system male Sprague-Dawley rats, occlusion of the left coronary artery. Kind of test: In vivo infarct size and scar mass after coronary artery ligation. The arrangement: species or system rat. The conditions noted are these: after 21 days, 10 mg/kg daily by gastric tube; for infarct size (as a percentage of left ventricle size): untreated control about 45. The protocol:
(§1) Food and water were supplied ad libitum. […] Hemodynamic and histological assessments were made.
After 21 days, once the hemodynamic data were obtained, the animals were sacrificed and both average dry scar mass to left ventricle mass (n=5/group) and infarct size (n=5/group) were measured. For infarct size measurement, hearts from the untreated and PLP/compound XXIIb-treated groups were fixed in formalin and embedded in paraffin. Six evenly spaced slices were cut across the left ventricle. […] sections were cut from each slice and mounted. Sections were stained with Trichrome to discriminate between fibrous scar and noninfarcted tissue. Using the free-drawing line tool in Scion Image v4.02b, infarct internal perimeter and left ventricle internal perimeter lengths were traced per oculum for each section. Noteworthy transmural scars were taken into account. Infarct size was then expressed as the average scar perimeter/ventricle perimeter ratio. Scar mass measurements were obtained by drying excised scar tissue and left ventricles at 50-60° C. for 72 hours.

For test [3] the test system is unchanged. As to the kind of experiment: In vivo hypertrophy after coronary artery ligation. The conditions noted are these: rat model of Example 20. The protocol: as §1
Hypertrophy is a physiological condition of enlargement (increased mass) due to increased stress. Cardiac hypertrophy is assessed by calculating the heart to body mass ratio. Treatment with PLP or compound XXIIb results in a decrease in cardiac hypertrophy, in the rat model described in Example 20.

For test [4] the test system is unchanged. Kind of test: In vivo hemodynamic changes after coronary artery ligation. The conditions noted are these: day 21 after coronary ligation; 10 mg/kg daily by gastric tube.

The text below walks through data of US6897228B2, “Pyridoxine and pyridoxal analogues: new uses” (Medicure International Inc., priority 2000, dated 2005).

With `Cc1ncc(CNc2ccc(C(=N)N)cc2)c(CO)c1O` [Compound XXXV], in test [1] (compound 500 μM), the “Extent of aggregation as a percentage amplitude, 1 μg/mL collagen” value is 83%; the “Extent of aggregation as a percentage amplitude, 4 μM ADP” value is given as 70%; the “Extent of aggregation as a percentage amplitude, 5 μg/mL collagen” value is given as 75%; the “Extent of aggregation as a percentage amplitude, 12 μM TRAP” value turned out to be 90%. Further, in test [1] (compound 2 mM), the “Extent of aggregation as a percentage amplitude, 1 μg/mL collagen” value worked out at 79%; the “Extent of aggregation as a percentage amplitude, 4 μM ADP” value stood at 15%; the “Extent of aggregation as a percentage amplitude, 5 μg/mL collagen” value came to 67%; the “Extent of aggregation as a percentage amplitude, 12 μM TRAP” value came to 11%.
4-methylimidazole pyridoxine [XXIIb]: in test [2], the “dry scar to left ventricle mass ratio” value is “reductions similar in magnitude to that seen in the PLP group” and the “infarct size (as a percentage of left ventricle size)” value is listed as “reduced”. Also, the “cardiac hypertrophy (heart to body mass ratio)” value in test [3] was “decrease”. Moreover, in test [1] (compound 500 μM), the “Extent of aggregation as a percentage amplitude, 1 μg/mL collagen” value was determined as 79%; the “Extent of aggregation as a percentage amplitude, 4 μM ADP” value stood at 59%; the “Extent of aggregation as a percentage amplitude, 5 μg/mL collagen” value worked out at 82%; the “Extent of aggregation as a percentage amplitude, 12 μM TRAP” value stood at 91%. In test [1] (compound 2 mM), the “Extent of aggregation as a percentage amplitude, 1 μg/mL collagen” value is 32%; the “Extent of aggregation as a percentage amplitude, 4 μM ADP” value was 46%; the “Extent of aggregation as a percentage amplitude, 5 μg/mL collagen” value was found to be 77%; the “Extent of aggregation as a percentage amplitude, 12 μM TRAP” value is listed as 84%. Further, in test [4], the “+dP/dt (rate of contraction)” value is “recoveries”, the “LVEDP in response to coronary occlusion” value is recorded as “reduced rises” and the “−dP/dt (rate of relaxation)” value is reported as “recoveries”.
Regarding `Cc1ncc(COP(=O)(O)O)c(C=O)c1O` [PLP, 3-hydroxy-2-methyl-5-[(phosphonooxy)methyl]-4-pyridine-carboxaldehyde, reference compound], in test [2], the “dry scar to left ventricle mass ratio” value is “reduced” and the “infarct size (as a percentage of left ventricle size)” value is “reduced”. In test [3], the “cardiac hypertrophy (heart to body mass ratio)” value is recorded as “decrease”. Moreover, in test [1] (compound 500 μM), the “Extent of aggregation as a percentage amplitude, 1 μg/mL collagen” value is recorded as 89%; the “Extent of aggregation as a percentage amplitude, 4 μM ADP” value worked out at 69%; the “Extent of aggregation as a percentage amplitude, 5 μg/mL collagen” value was determined as 87%; the “Extent of aggregation as a percentage amplitude, 12 μM TRAP” value worked out at 90%. Besides, in test [1] (compound 2 mM), the “Extent of aggregation as a percentage amplitude, 1 μg/mL collagen” value is listed as 84%; the “Extent of aggregation as a percentage amplitude, 4 μM ADP” value came to 16%; the “Extent of aggregation as a percentage amplitude, 5 μg/mL collagen” value was 89%; the “Extent of aggregation as a percentage amplitude, 12 μM TRAP” value was determined as 91%. For the same compound, in test [4], the “+dP/dt (rate of contraction)” value is listed as “recoveries”, the “LVEDP in response to coronary occlusion” value is “reduced rises” and the “−dP/dt (rate of relaxation)” value is listed as “recoveries”.
